# Test results reported in patent publication US10767179B2, “MicroRNA composition for the treatment of neuroblastoma” (THE BOARD OF REGENTS OF THE UNIVERSITY OF TEXAS SYSTEM, priority 2014, dated 2020).
# Experiments:
# [1] = tested on: 3′UTR of CDK4; experiment: Luciferase Reporter Assay, CDK4 3'UTR; type: cell-based, human; settings: BE(2)-C cells, 25 nM mimic, 72 h
# Description: (§1) Luciferase Reporter Assay. The segments of the wildtype 3′ UTRs for CDK4 and STAT3 containing the predicted target sites of miR-506-3p and miR-124-3p were cloned from human genomic DNA. Mutant constructs were generated with the seed target site (GUGCCUU (SEQ ID NO:4)) replaced by CACGGUU (SEQ ID NO:5). The 3′ UTRs were cloned downstream of the firefly luciferase coding sequences into the pmirGLO dual-luciferase reporter (Promega), a vector containing both firefly and Renilla luciferase cDNAs under the control of separate promoter/terminator systems. The firefly luciferase was used as the primary reporter for miRNA regulation of the 3′ UTR. The Renilla luciferase is an internal control for normalization. BE(2)-C cells were co-transfected with luciferase reporters (0.8 ng/μl) and miRNA mimics or control oligonucleotide (oligo) (25 nM). Luciferase activities were measured after 72 h using the Dual-Glo Luciferase Assay System (Promega). Firefly luciferase activity was normalized to Renilla luciferase activity to evaluate the effect of the miRNAs.
# [2] = tested on: BE(2)-C cells; experiment: Endogenous miRNA expression by qRT-PCR in differentiated cells; type: cell-based; settings: differentiated BE(2)-C cells
# Method: Mrna And Mirna Expression. Total RNA was isolated as previously described (Du et al., Mol Cancer Res, 2009, 7(8):1234-43). mRNA expression profiling was done using the Illumina mRNA WG-6 v3 microarray platform. miRNA expression was measured by qRT-PCR using TaqMan microRNA Assays (Life Technologies) with average expression of RNU44 RNA, RNU19 RNA, GAPDH mRNA and 18s rRNA used as controls for normalizing RNA loading.
# [3] = tested on: BE(2)-C cells; experiment: High-content screen: detection and quantification of neurite outgrowth; type: cell-based; set-up: key: neurite length normalized to the mean of its plate; settings: 25 nM miRNA mimic, 4 days transfection, normalized to plate mean
# Method: FIG. 2A-2C. HCS screening of miRNA mimics identifies miRNAs that induce neurite outgrowth in BE(2)-C cells. (A-B) 2,500 cells were reverse-transfected with 25 nM miRNA mimics in 96-well plates. After 4 days transfection, relative neurite lengths were quantified as above. (A) The distribution of post-normalized neurite length measurements (grey histogram) for individual miRNA mimics from the screen and the fitted Gamma distribution curve (␣=3.27, ┘=0.444) (B) Correlation between two independent neurite length measurements for one library plate. Cells were transfected with 25 nM mimics in two independent 96-well plates. Normalized neurite lengths were measured as above. Correlation of neurite length between the two plates was analyzed using two-tailed Pearson Correlation with p<0.05 considered significant. (C) The distribution of the neurite lengths for untreated BE(2)-C cells. 2,500 Cells were plated into each well in 96 well plates. After 4 days of culture, neurite lengths were analyzed as above. Shown are the neurite length distribution histogram, the empirical density curve, and the fitted Gamma distribution curve (␣=30.23, ␣=0.033).
# Detection and Quantification of Neurite Outgrowth. Cells were plated and treated in 96-well plates. For detecting neurite outgrowth, cells were placed into ZOOM IncuCyte Imaging System (Essen BioScience) and cell images were taken under 20× microscopic magnification. For detecting neurite outgrowth in a time-dependent manner, cell images were taken every 6 h. The neurite lengths associated with each treatment were calculated using the neurite definition defined for each specific cell line using the NeuroTrack system (Essen BioScience).
# Analysis of HCS Data. The relative neurite length associated with cells in each well on the screen plates was determined as above. In order to allow for plate-to-plate comparison, neurite length associated with each well in each plate was first internally normalized to the mean of the corresponding plate, and multiple screen plates were then aggregated together to generate the neurite length distribution. The data were then further analyzed to determine the distribution of the unaffected cells as described below, and to identify differentiation-inducing miRNA mimics.
# Statistical Analysis. For HCS, p-value for neurite length associated with each miRNA mimic was evaluated by assuming the distribution of neurite lengths follows Gamma distribution, and false Discovery Rate (FDR) was determined by Benjamini-Hochberg correction method for multiple tests (Benjamin, Journal of the Royal Statistical Society Series B (Methodological), 1995, 57(1):12). […] For all other conditions, the statistical significance for each treatment was determined using t-test by comparing the treatment group with control, with p<0.05 considered statistically significant.
# [4] = tested on: differentiation markers; experiment: Western blots of differentiation markers in multiple neuroblastoma cell lines; type: cell-based; settings: miRNA mimic
# Method: FIG. 3A-3G. Characterization of the effect of the top 5 neurite-inducing miRNA mimics on cell differentiation and growth in multiple neuroblastoma cell lines. (A-B) Effects of the identified top 5 miRNA mimics on neurite outgrowth. BE(2)-C cells were transfected with 25 nM miRNA mimics or control for 4 days, and relative neurite lengths were quantified as above. Shown are representative cell images analyzed to define neurite and cell body areas (A) and neurite length quantifications (B). (C) Effects of the 5 miRNA mimics on expression of differentiation markers. BE(2)-C cells were transfected with 25 nM of the indicated miRNA mimics or control, and proteins levels were examined after 4 days. (D) Effects of the 5 miRNA mimics on cell proliferation rate. (E) Effect of the 5 miRNAs on neurite outgrowth in multiple cell lines. Cells were transfected with 25 nM miRNA mimics or control, and neurite lengths were quantified as above after 5 days. (F-G) Effects of miR-506-3p (F) and miR-124-3p (G) mimics on expression of differentiation markers in multiple cell lines. *, p<0.05; **, p<0.01; ***, p<0.001; **** , p<0.0001.
# Western Blots. […] Protein concentration was determined using the Pierce BCA assay (Thermo Fisher Scientific). […] Bound antibodies were detected with secondary antibodies conjugated with horseradish peroxidase (HRP) visualized by enhanced chemiluminescent (ECL) substrate (Pierce).
# [5] = tested on: BE(2)-C cells; experiment: Cell Viability Assay (CellTiter-Glo); type: cell-based; settings: transfected with mimic for 4 days
# Method: Cell Viability Assay. Cells were plated in 96-well format and treated as specified. After culturing for 120 h, cell viability was determined using the CellTiter-Glo Luminescent Cell Viability Assay (Promega).
# [6] = tested on: BE(2)-C cells; experiment: High-content screen: detection and quantification of neurite outgrowth; type: cell-based; settings: 4 days, dose-dependent, vs 0 nM
# [7] = tested on: 3′UTR of STAT3; experiment: Luciferase Reporter Assay, STAT3 3'UTR; type: cell-based, human; settings: BE(2)-C cells, 25 nM mimic, 72 h
# Description: as §1
substance,measurement,setting,value
"hsa-miR-506-3p: miRNA mimic (Dharmacon), mature sequence UAAGGCACCCUUCUGAGUAGA (SEQ ID NO: 1) (UAAGGCACCCUUCUGAGUAGA(1); as printed in the source, key not given here)",Target site in the 3′UTR of CDK4 by luciferase reporter,[1],validated
same,Overexpression of the endogenous miRNA in differentiated cells,[2],380.1±48.4 fold
same,Neurite length (mean ± SD),[3],10.04 ± 3.41
same,Expression of differentiation markers in all the tested cell lines,[4],dramatically induce expression of differentiation markers
same,Cell viability when reaching plateau,[5],6.3±0.3%
same,Concentration at which induction of neurite outgrowth is significant,[6],0.1 nM
same,Target site in the 3′UTR of STAT3 by luciferase reporter,[7],validated
